From patent US6794414B1, “Method and compositions for treating diseases mediated by transglutaminase activity” (Yeda Research and Development Co. Ltd., priority 1998, dated 2004)
“Also recorded” adds a separate entry of the source.

What was measured:
transglutaminase (TGase) = assay: TGase assay on human brain extracts ([3H]putrescine incorporation into casein); format: biochemical; settings: for TGase Activity + Casein + MDC / TGase Activity − Casein + MDC: 5 mM mono dansyl cadaverine, mean ± SEM, n = 2; for TGase Activity − Casein + MDC: no casein
Experimental: Each assay contained 80 μg of brain extract, 4 mg/ml N,N-dimethylated casein, 50 mM Tris (pH 8.0), 5 mM CaCl2, 5 mM dithiothreitol (DTT), and 0.37 mM putrescine (1:5, ^3 [H]putrescine:putrescine) in 80 μL. The reaction was incubated at 37° C. for 30 minutes. After it was washed in 500 μL of 10% trichloro acetic acid (TCA) and washed again in 100% ethanol, the reaction was resuspended in 220 μL of 0.1 M NaOH. The resuspended pellet was added to 10 ml of scintillation liquid. […] For lymphoid cells, 10^6 cells were suspended in 0.5 ml buffer for five minutes, then centrifuged at 1200×g for ten minutes.
Approximately 500 mg of brain tissue was homogenized in 2 ml of 10 mM Hepes (pH 7.4) containing 150 mM NaCl, 0.2 mg/ml leupeptin, 0.2 mg/ml aprotinin, 0.2 mg/ml pepstatin, and 0.5 mM phenylmethylsulfonyl fluoride (PMSF). The homogenate was centrifuged at 4° C. for ten minutes at 1000×g, and the supernatant was then centrifuged at 4° C. for ten minutes at 10,000×g to separate the cytoplasmic proteins. The remaining nuclear pellet was washed twice, for ten minutes each time, with the homogenization buffer at 4° C. at 1000×g, and then suspended in 1 ml of 10 mM Tris-Cl, 140 mM NaCl, 3 mM MgCl2, 0.5 mM PMSF, 0.1% sodium dodecyl sulfate (SDS), and 1% Nonylphenyl-polyethylene glycol (Nonidet P-40) (pH 7.4). The homogenate was spun at 4° C. for ten minutes at 8000×g. This procedure increased the level of beta-demn, a protein found more frequently in the cytoplasm than in the nucleus, enriching it 15.5-fold in the cytoplasm relative to the nucleus (Zhao et al, 1998).
This method for measuring brain transglutaminase was adapted from Folk and Cole (Folk et al, 1966). Casein serves as an excellent glutamine-containing protein substrate and […], while putrescine serves as the attacking nucleophile (Cooper et al, 1997). In the Huntington's Disease brain, in both the affected cortex andjin relatively unaffected areas like the cerebellum, which are affected in juvenile Huntington's Disease, transglutaminase activity was greater than in the corresponding areas of the control brain (HD cortex 14888±2864 cpm vs. normal cortex 6697±1410 cpm, mean ±1SEM, p<0.009 for HD cortex versus normal cortex; HD cerebellum 11221±2426 cpm vs. control cerebellum 2606±719 cpm, mean ±1SEM, p<0.001 for HD cerebellum versus control cerebellum.) Transglutaminase activity was also greater in extracts of nuclei from brains of Huntington's Disease patients than controls (HD brain cortical nuclear extract 6368±764 cpm vs. control brain cortical nuclear extract 2357±226 cpm, mean ±1SEM, Table 1).

[1] = test system: mice with experimental autoimmune encephalomyelitis; assay: Experimental autoimmune encephalomyelitis (EAE) in mice; format: in vivo; settings: for Paralysis / paralytic disease in EAE: paraparetic mice with EAE
Experimental: Paraparetic mice with experimental autoimmune encephalomyelitis were administered one dose of monodansyl cadaverine. […] Thus, diseases mediated in part by transglutaminase can be treated with transglutaminase inhibitors.
0.05 mM monodansyl cadaverine was injected intraperitoneally into one of two groups of mice. The injection was given on day 13 after induction of disease, marked in the FIG. by an arrow.
To obtain the data shown in FIG. 6, experimental autoimmune encephalitis (EAE) was induced in ten week old SJL female mice. EAE was induced by an injection of 4 mg of mouse spinal cord homogenate in 1 ml of CFA. The injections were given intradermally in three places (two places in the flanks and one in the neck). On the same day, day 1, and on day 2, an intraperitoneal injection of pertussis toxin was given. The mice were treated with different concentrations of mono dansyl cadaverine on day 10. One group was injected twice on days 7 and 10 with […] mono dansyl cadaverine.
The grading score for EAE is 0, normal; 1, mild paraparesis; 2, paraparesis; 3, severe paraparesis; 4, quadriparesis; 5, dead.

[2] = molecular target: T1, httQ41 (330 amino acids), P42858
T1 chain: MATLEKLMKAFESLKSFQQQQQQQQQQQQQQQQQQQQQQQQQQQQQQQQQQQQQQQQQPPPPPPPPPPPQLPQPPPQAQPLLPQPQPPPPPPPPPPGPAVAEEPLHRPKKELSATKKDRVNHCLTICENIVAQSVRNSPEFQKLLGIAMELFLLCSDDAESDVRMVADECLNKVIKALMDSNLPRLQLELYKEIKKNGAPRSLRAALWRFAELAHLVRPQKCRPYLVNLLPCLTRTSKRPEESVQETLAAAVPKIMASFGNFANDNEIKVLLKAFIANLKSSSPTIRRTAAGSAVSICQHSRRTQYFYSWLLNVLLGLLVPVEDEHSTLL

[3] = molecular target: T2, httQ23 (90 amino acids), P42858
T2 chain: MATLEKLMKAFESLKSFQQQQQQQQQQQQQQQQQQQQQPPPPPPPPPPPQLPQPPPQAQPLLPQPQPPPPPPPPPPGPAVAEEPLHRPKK

[4] = molecular target: T3, httQ23 (310 amino acids), P42858
T3 chain: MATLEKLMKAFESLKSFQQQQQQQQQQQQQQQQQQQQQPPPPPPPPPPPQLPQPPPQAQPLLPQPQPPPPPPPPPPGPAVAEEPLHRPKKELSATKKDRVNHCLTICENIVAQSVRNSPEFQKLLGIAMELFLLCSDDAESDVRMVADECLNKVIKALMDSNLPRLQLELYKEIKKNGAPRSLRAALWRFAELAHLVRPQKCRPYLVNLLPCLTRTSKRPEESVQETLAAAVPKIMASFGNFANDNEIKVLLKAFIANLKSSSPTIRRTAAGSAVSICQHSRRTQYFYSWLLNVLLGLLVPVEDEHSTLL

[5] = molecular target: T4, httQ67 (135 amino acids), P42858
T4 chain: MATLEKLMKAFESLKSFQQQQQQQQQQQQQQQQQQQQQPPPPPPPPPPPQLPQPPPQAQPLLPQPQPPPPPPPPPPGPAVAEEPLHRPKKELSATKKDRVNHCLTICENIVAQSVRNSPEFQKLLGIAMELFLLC

[6] = molecular target: T5, httQ41 (100 amino acids; elsewhere given as 110 amino acids), P42858
T5 chain: T2 chain

CN(C)c1cccc2c(S(=O)(=O)NCCCCCN)cccc12 [monodansyl cadaverine]
TGase Activity + Casein + MDC (transglutaminase (TGase); Control Cerebellum extract): 83 ± 14 CPM | TGase Activity − Casein + MDC (transglutaminase (TGase); Control Cerebellum extract): 117 ± 30 CPM | TGase Activity + Casein + MDC (transglutaminase (TGase); Control Cortex extract): 63 ± 10 CPM | TGase Activity − Casein + MDC (transglutaminase (TGase); Control Cortex extract): 151 ± 39 CPM | TGase Activity + Casein + MDC (transglutaminase (TGase); HD Cerebellum extract): 186 ± 57 CPM | TGase Activity − Casein + MDC (transglutaminase (TGase); HD Cerebellum extract): 58 ± 13 CPM | TGase Activity + Casein + MDC (transglutaminase (TGase); HD Cortex extract): 94 ± 18 CPM | TGase Activity − Casein + MDC (transglutaminase (TGase); HD Cortex extract): 81 ± 17 CPM | Inhibition of enzymatic (transglutaminase) activity of brain extract (transglutaminase (TGase); cytosolic extract from HD and control brain, putrescine incorporation into casein): completely inhibited | Effect on EAE (FIG. 5), p compared to control ([1]; 0.05 mM injected intraperitoneally on day 13 after induction, following the second day of injection): significant influence (p=0.03 compared to control) | Mononuclear cell infiltration in brains by hematoxilin-eosin staining ([1]; FIG. 5 experiment, versus vehicle-injected controls): high levels of infiltration | Side effects ([1]; mice treated in vivo): no untoward side effects | Lymphocytic infiltration / accumulation of inflammatory lymphocytes in brain ([1]; mice with EAE, histology): prevented the accumulation of inflammatory lymphocytes in the brain; also recorded: reversed | Paralysis / paralytic disease in EAE [1]: reversed paralytic disease; also recorded: Ongoing paralysis was reversed | Disease status after treatment ([1]; paraparetic mice with EAE treated in vivo): apparently free of disease; also recorded: free of disease after treatment | Paralysis / paralytic disease in EAE ([1]; listed as monodensyl cadaverine): can reverse ongoing paralysis

B1: guinea pig liver TGase (Sigma) (protein)
chain: AEDLILERCDLQLEVNGRDHRTADLCRERLVLRRGQPFWLTLHFEGRGYEAGVDTLTFNAVTGPDPSEEAGTMARFSLSSAVEGGTWSASAVDQQDSTVSLLLSTPADAPIGLYRLSLEASTGYQGSSFVLGHFILLYNPRCPADAVYMDSDQERQEYVLTQQGFIYQGSAKFINGIPWNFGQFEDGILDICLMLLDTNPKFLKNAGQDCSRRSRPVYVGRVVSAMVNCNDDQGVLQGRWDNNYSDGVSPMSWIGSVDILRRWKDYGCQRVKYGQCWVFAAVACTVLRCLGIPTRVVTNFNSAHDQNSNLLIEYFRNESGEIEGNKSEMIWNFHCWVESWMTRPDLEPGYEGWQALDPTPQEKSEGTYCCGPVPVRAIKEGHLNVKYDAPFVFAEVNADVVNWIRQKDGSLRKSINHLVVGLKISTKSVGRDEREDITHTYKYPEGSEEEREAFVRANHLNKLATKEEAQEETGVAMRIRVGQNMTMGSDFDIFAYITNGTAESHECQLLLCARIVSYNGVLGPVCSTNDLLNLTLDPFSENSIPLHILYEKYGDYLTESNLIKVRGLLIEPAANSYVLAERDIYLENPEIKIRVLGEPKQNRKLIAEVSLKNPLPVPLLGCIFTVEGAGLTKDQKSVEVPDPVEAGEQAKVRVDLLPTEVGLHKLVVNFECDKLKAVKGYRNVIIGPA
aggregation into a high molecular weight polymer (35S gel) [2]: upon addition of transglutaminase, both httQ23 (310 amino acids) and httQ41 (330 amino acids) aggregate into a high molecular weight polymer within 30 minutes | aggregation into a high molecular weight polymer (35S gel) [3]: upon addition of transglutaminase, httQ23 (90 amino acids), httQ41 (100 amino acids), and httQ67 (135 amino acids) all aggregate into a high molecular weight polymer within 30 minutes | aggregation into a high molecular weight polymer (35S gel) [4]: upon addition of transglutaminase, both httQ23 (310 amino acids) and httQ41 (330 amino acids) aggregate into a high molecular weight polymer within 30 minutes | aggregation into a high molecular weight polymer (35S gel) [5]: upon addition of transglutaminase, httQ23 (90 amino acids), httQ41 (100 amino acids), and httQ67 (135 amino acids) all aggregate into a high molecular weight polymer within 30 minutes | amount of aggregation compared to httQ23 (densitometry) [5]: 2-3 fold greater amount of aggregation of httQ41 and httQ67 compared to httQ23 at each concentration of transglutaminase | aggregation into a high molecular weight polymer (35S gel) [6]: upon addition of transglutaminase, httQ23 (90 amino acids), httQ41 (100 amino acids), and httQ67 (135 amino acids) all aggregate into a high molecular weight polymer within 30 minutes | amount of aggregation compared to httQ23 (densitometry) [6]: 2-3 fold greater amount of aggregation of httQ41 and httQ67 compared to httQ23 at each concentration of transglutaminase
